US20230111310A1, “CARBOXYLIC ACID DERIVATIVE-SUBSTITUTED IMINO ARYL COMPOUND, PREPARATION METHOD THEREFOR, HERBICIDAL COMPOSITION AND USE THEREOF” (Qingdao Kingagroot Chemical Compound Co., Ltd., priority 2020, published 2023)

Columns and labels:
Assay in all cases: Weeding effect in post-emergence stage
Format in all cases: in vivo
[1] = tested on: Eleusine indica; conditions: for Weeding effect in post-emergence stage, Eleusine indica: level of fresh weight growth control rate; for Weeding effect in post-emergence stage, Eleusine indica (level): fresh weight control rate level
Method in brief: (§1)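 Compound, dissolved in acetone and diluted in water with Tween 80 plus methyl oleate EC (1.5 liter/ha), is sprayed onto 2-3 leaf potted plants. Rates span 7.5–500 g/ha. After 3 weeks of greenhouse culture, weeding effect is counted as the mean of triplicates.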

[2] = tested on: Digitaria sanguinalis; conditions: for Weeding effect in post-emergence stage, Digitaria sanguinalis: level of fresh weight growth control rate; for Weeding effect in post-emergence stage, Digitaria sanguinalis (level): fresh weight control rate level
Method in brief: as §1

[3] = tested on: Abutilon theophrasti; conditions: for Weeding effect in post-emergence stage, Abutilon theophrasti: level of fresh weight growth control rate; for Weeding effect in post-emergence stage, Abutilon theophrasti (level): fresh weight control rate level
Method in brief: as §1

[4] = tested on: Setaria viridis; conditions: for Weeding effect in post-emergence stage, Setaria viridis: level of fresh weight growth control rate; for Weeding effect in post-emergence stage, Setaria viridis (level): fresh weight control rate level
Method in brief: as §1

[5] = tested on: Alopecurus japonicus; conditions: for Weeding effect in post-emergence stage, Alopecurus japonicus: level of fresh weight growth control rate; for Weeding effect in post-emergence stage, Alopecurus japonicus (level): fresh weight control rate level
Method in brief: as §1

[6] = tested on: Echinochloa crusgalli; conditions: for Weeding effect in post-emergence stage, Echinochloa crusgalli: level of fresh weight growth control rate; for Weeding effect in post-emergence stage, Echinochloa crusgalli (level): fresh weight control rate level
Method in brief: as §1

Structure (SMILES) | Weeding effect in post-emergence stage, Eleusine indica ([1]; Dose 15 g/ha) | Weeding effect in post-emergence stage, Digitaria sanguinalis ([2]; Dose 15 g/ha) | Weeding effect in post-emergence stage, Abutilon theophrasti ([3]; Dose 15 g/ha) | Weeding effect in post-emergence stage, Setaria viridis ([4]; Dose 15 g/ha) | Weeding effect in post-emergence stage, Alopecurus japonicus ([5]; Dose 15 g/ha) | Weeding effect in post-emergence stage, Echinochloa crusgalli ([6]; Dose 15 g/ha) | Weeding effect in post-emergence stage, Eleusine indica (level) ([1]; Dose 15 g/ha) | Weeding effect in post-emergence stage, Digitaria sanguinalis (level) ([2]; Dose 15 g/ha) | Weeding effect in post-emergence stage, Abutilon theophrasti (level) ([3]; Dose 15 g/ha) | Weeding effect in post-emergence stage, Setaria viridis (level) ([4]; Dose 15 g/ha) | Weeding effect in post-emergence stage, Alopecurus japonicus (level) ([5]; Dose 15 g/ha) | Weeding effect in post-emergence stage, Echinochloa crusgalli (level) ([6]; Dose 15 g/ha) | further results
CC(O/N=C/c1cc(-n2c(=O)cc(C(F)(F)F)n(C)c2=O)c(F)cc1Cl)C(=O)OCCO (racemic) [Compound 228] | 5 (Level 5: growth control rate is above 85%) | 5 (Level 5: growth control rate is above 85%) | 5 (Level 5: growth control rate is above 85%) | 5 (Level 5: growth control rate is above 85%) | 5 (Level 5: growth control rate is above 85%) | 5 (Level 5: growth control rate is above 85%) |  |  |  |  |  |  | 
COC(=O)[C@@H](C)O/N=C/c1cc(-n2c(=O)n(C)c(=S)n(C)c2=O)c(F)cc1C(F)(F)F [85(R)] | 5 (Level 5: growth control rate is above 85%) | 5 (Level 5: growth control rate is above 85%) | 5 (Level 5: growth control rate is above 85%) | 5 (Level 5: growth control rate is above 85%) | 4 (Level 4: growth control rate is greater than or equal to 60% and less than 85%) | 5 (Level 5: growth control rate is above 85%) |  |  |  |  |  |  | 
COC(=O)C(C)O/N=C/c1cc(-n2c(=S)cc(C(F)(F)F)n(C)c2=S)c(F)cc1C(F)(F)F (racemic) [Compound 392] |  |  |  |  |  |  |  |  |  |  |  |  | Weeding effect in post-emergence stage, Eleusine indica (level) ([1]; Dose 60 g/ha): 5 (Level 5: growth control rate is above 85%); Weeding effect in post-emergence stage, Digitaria sanguinalis (level) ([2]; Dose 60 g/ha): 5 (Level 5: growth control rate is above 85%); Weeding effect in post-emergence stage, Abutilon theophrasti (level) ([3]; Dose 60 g/ha): 5 (Level 5: growth control rate is above 85%); Weeding effect in post-emergence stage, Setaria viridis (level) ([4]; Dose 60 g/ha): 5 (Level 5: growth control rate is above 85%); Weeding effect in post-emergence stage, Alopecurus japonicus (level) ([5]; Dose 60 g/ha): 5 (Level 5: growth control rate is above 85%); Weeding effect in post-emergence stage, Echinochloa crusgalli (level) ([6]; Dose 60 g/ha): 5 (Level 5: growth control rate is above 85%)
CC(C#N)COC(=O)[C@@H](C)O/N=C/c1cc(-n2c(=O)cc(C(F)(F)F)n(C)c2=O)c(F)cc1Cl (stereo partly drawn) [445(R)] |  |  |  |  |  |  | 5 (Level 5: growth control rate is above 85%) | 5 (Level 5: growth control rate is above 85%) | 5 (Level 5: growth control rate is above 85%) | 5 (Level 5: growth control rate is above 85%) | 5 (Level 5: growth control rate is above 85%) | 5 (Level 5: growth control rate is above 85%) | 
CC(O/N=C/c1cc(-n2c(=O)cc(C(F)(F)F)n(C)c2=O)c(F)cc1Cl)C(=O)Oc1ccccc1 (stereo not drawn) [Compound 262] | 5 (Level 5: growth control rate is above 85%) | 5 (Level 5: growth control rate is above 85%) | 5 (Level 5: growth control rate is above 85%) | 5 (Level 5: growth control rate is above 85%) | 5 (Level 5: growth control rate is above 85%) | 5 (Level 5: growth control rate is above 85%) |  |  |  |  |  |  | 
CC(C)COC(=O)[C@@H](C)O/N=C/c1cc(-n2c(=O)cc(C(F)(F)F)n(C)c2=O)c(F)cc1Cl [201(R)] | 5 (Level 5: growth control rate is above 85%) | 5 (Level 5: growth control rate is above 85%) | 5 (Level 5: growth control rate is above 85%) | 5 (Level 5: growth control rate is above 85%) | 5 (Level 5: growth control rate is above 85%) | 5 (Level 5: growth control rate is above 85%) |  |  |  |  |  |  | 
C[C@@H](O/N=C/c1cc(-n2c(=O)cc(C(F)(F)F)n(C)c2=O)c(F)cc1Cl)C(=O)OCC1(C#N)CC1 [447(R)] |  |  |  |  |  |  | 5 (Level 5: growth control rate is above 85%) | 5 (Level 5: growth control rate is above 85%) | 5 (Level 5: growth control rate is above 85%) | 5 (Level 5: growth control rate is above 85%) | 5 (Level 5: growth control rate is above 85%) | 5 (Level 5: growth control rate is above 85%) | 
CC(O/N=C/c1cc(-n2c(=O)cc(C(F)(F)F)n(C)c2=O)c(F)cc1Cl)C(=O)OC/C=C/Cl (racemic) [Compound 225] | 5 (Level 5: growth control rate is above 85%) | 5 (Level 5: growth control rate is above 85%) | 5 (Level 5: growth control rate is above 85%) | 5 (Level 5: growth control rate is above 85%) | 4 (Level 4: growth control rate is greater than or equal to 60% and less than 85%) | 5 (Level 5: growth control rate is above 85%) |  |  |  |  |  |  | 
CC/C(C)=N/OC(=O)C(C)O/N=C/c1cc(-n2c(=O)cc(C(F)(F)F)n(C)c2=O)c(F)cc1Cl (stereo not drawn) [Compound 249] | 5 (Level 5: growth control rate is above 85%) | 5 (Level 5: growth control rate is above 85%) | 5 (Level 5: growth control rate is above 85%) | 5 (Level 5: growth control rate is above 85%) | 5 (Level 5: growth control rate is above 85%) | 5 (Level 5: growth control rate is above 85%) |  |  |  |  |  |  | 
COC(=O)C(C)O/N=C/c1nc(-n2c(=O)cc(C(F)(F)F)n(C)c2=O)c(F)cc1Cl (stereo not drawn) [Compound 504] |  |  |  |  |  |  | 5 (Level 5: growth control rate is above 85%) | 5 (Level 5: growth control rate is above 85%) | 5 (Level 5: growth control rate is above 85%) | 5 (Level 5: growth control rate is above 85%) | 5 (Level 5: growth control rate is above 85%) | 5 (Level 5: growth control rate is above 85%) | 
CC(O/N=C/c1cc(-n2c(=O)cc(C(F)(F)F)n(C)c2=O)c(F)cc1Cl)C(=O)OCc1cccs1 (stereo not drawn) [Compound 268] |  |  |  |  |  |  |  |  |  |  |  |  | Weeding effect in post-emergence stage, Eleusine indica ([1]; Dose 30 g/ha): 5 (Level 5: growth control rate is above 85%); Weeding effect in post-emergence stage, Digitaria sanguinalis ([2]; Dose 30 g/ha): 5 (Level 5: growth control rate is above 85%); Weeding effect in post-emergence stage, Abutilon theophrasti ([3]; Dose 30 g/ha): 5 (Level 5: growth control rate is above 85%); Weeding effect in post-emergence stage, Setaria viridis ([4]; Dose 30 g/ha): 5 (Level 5: growth control rate is above 85%); Weeding effect in post-emergence stage, Alopecurus japonicus ([5]; Dose 30 g/ha): 5 (Level 5: growth control rate is above 85%); Weeding effect in post-emergence stage, Echinochloa crusgalli ([6]; Dose 30 g/ha): 5 (Level 5: growth control rate is above 85%)
C#CCCOC(=O)[C@@H](C)O/N=C/c1cc(-n2c(=O)cc(C(F)(F)F)n(C)c2=O)c(F)cc1Cl [442(R)] |  |  |  |  |  |  | 5 (Level 5: growth control rate is above 85%) | 5 (Level 5: growth control rate is above 85%) | 5 (Level 5: growth control rate is above 85%) | 5 (Level 5: growth control rate is above 85%) | 5 (Level 5: growth control rate is above 85%) | 5 (Level 5: growth control rate is above 85%) | 
CCOC(=O)C(CC(F)(F)F)O/N=C/c1cc(-n2c(=O)cc(C(F)(F)F)n(C)c2=O)c(F)cc1Cl (stereo not drawn) [Compound 486] |  |  |  |  |  |  | 5 (Level 5: growth control rate is above 85%) | 5 (Level 5: growth control rate is above 85%) | 5 (Level 5: growth control rate is above 85%) | 5 (Level 5: growth control rate is above 85%) | 5 (Level 5: growth control rate is above 85%) | 5 (Level 5: growth control rate is above 85%) | 
C[C@@H](O/N=C/c1cc(-n2c(=O)cc(C(F)(F)F)n(C)c2=O)c(F)cc1Cl)C(=O)OCC(F)F [217(R)] | 5 (Level 5: growth control rate is above 85%) | 5 (Level 5: growth control rate is above 85%) | 5 (Level 5: growth control rate is above 85%) | 5 (Level 5: growth control rate is above 85%) | 5 (Level 5: growth control rate is above 85%) | 5 (Level 5: growth control rate is above 85%) |  |  |  |  |  |  | 
